Here are results for 44 compounds from the Deep4Chem optical property database.

The nature of the series: photoluminescence quantum yield (fraction); solvent given as SMILES.
Where [1] appears, read: in c1ccc2c(c1)c1ccccc1n2-c1ccc(-c2ccc(-n3c4ccccc4c4ccccc43)cc2)cc1.

`CC(C)(C)NC(=O)c1c([Si](C)(C)C)cc2ccc3cccc4ccc1c2c34`: the photoluminescence quantum yield (in ClC(Cl)Cl) amounted to 0.151.

`CCCCCCCCCCOc1cc(OCCCCCCCCCC)cc(C2=C3C(C)=CC(/C=C/c4ccc(OC)cc4)=[N+]3[B-](F)(F)n3c(/C=C/c4ccc(OC)cc4)cc(C)c32)c1` displayed a photoluminescence quantum yield (in ClC(Cl)Cl) of 0.37.

For the compound `CCCCN1c2ccc(/C=C/c3cc(=O)oc4cc(C)ccc34)cc2Sc2cc(/C=C/c3cc(=O)oc4cc(C)ccc34)ccc21`, under “in ClC(Cl)Cl”, the photoluminescence quantum yield came out at 0.83.

As to `c1ccc2c([SiH](c3c4ccccc4cc4ccccc34)c3c4ccccc4cc4ccccc34)c3ccccc3cc2c1`, the photoluminescence quantum yield (in ClC(Cl)Cl) is 0.028.

Regarding `COc1ccc(-c2nc(-c3ccccc3O)c(-c3ccccc3O)n2-c2ccc(C)cc2)cc1`, the photoluminescence quantum yield runs as follows: (in C1CCOC1) 0.01; (in CS(C)=O) 0.01; (in ClC(Cl)Cl) 0.01; (in ClCCl) 0.04.

On to `CC1=N/C(=C\c2ccncc2)C(=O)N1C`, for which the photoluminescence quantum yield by setting is: (in C1COCCO1) 0.165; (in CC#N) 0.047; (in CCO) 0.033; (in CCOC(C)=O) 0.089; (in O) 0.0065.

`O=Cc1ccc(C#CC(C#Cc2ccc(C=O)s2)=Cc2ccc(C=C(C#Cc3ccc(C=O)s3)C#Cc3ccc(C=O)s3)cc2)s1` showed a photoluminescence quantum yield (in ClC(Cl)Cl) of 0.08.

With `CCCCCCOc1ccc2c(c1)-c1cc3c(cc1[Si]2(C)C)-c1ccccc1[Si]3(C)C`, where the note is “in ClCCl”, the photoluminescence quantum yield came out at 0.51.

With `CCc1c(C)c2n(c1C)[B-](F)(F)[N+]1=C(c3ccc[nH]3)c3ccccc3C1=C2`, the photoluminescence quantum yield is, setting by setting: (in C1CCOC1) 0.71; (in CC#N) 0.74; (in CCCCCC) 0.82; (in CO) 0.65; (in Cc1ccccc1) 0.72; (in ClCCl) 0.66.

For `CC1(C)CC(NCc2ccc3ccc4cccc5ccc2c3c45)CC(C)(C)N1`, the photoluminescence quantum yield came to 0.55 (in C1CCCCC1), 0.04 (in CC#N), 0.14 (in CO) and 0.08 (in ClC(Cl)Cl).

`CCCC1(CCC)c2ccccc2-c2ccccc21`: the photoluminescence quantum yield (in C1CCCCC1) was 0.36.

The compound `CCCCCCc1cc2c3c(c1)c(=C1c4ccccc4S(=O)(=O)c4ccccc41)c1cc(CCCCCC)cc4c1N3c1c(cc(CCCCCC)cc1c4=C1c3ccccc3S(=O)(=O)c3ccccc31)c2=C1c2ccccc2S(=O)(=O)c2ccccc21` gave a photoluminescence quantum yield (in ClCCl) of 0.47.

With `N#Cc1cc(-n2c3ccccc3c3ccccc32)c(-n2c3ccccc3c3cc(Br)ccc32)cc1C#N`, the photoluminescence quantum yield is, setting by setting: (in C1CCOC1) 0.061; under setting [1], 0.555.

As for `CCN(CC)c1ccc2c(c1)oc(=O)c1c(=O)oc3c(C)c4oc(=O)c5c(=O)oc6cc(N(CC)CC)ccc6c5c4cc3c12`, the photoluminescence quantum yield runs as follows: (in CS(C)=O) 0.002; (in ClCCl) 0.67.

In the case of `c1ccc(N2N=C(c3cccc4ccccc34)CC2c2ccc3ccc4cccc5ccc2c3c45)cc1` (stereo not drawn), the photoluminescence quantum yield (in ClCCl) was found to be 0.58.

In turn, `N#Cc1cc(/C=C/c2ccc(/C=C/c3ccc(N(c4ccccc4)c4ccccc4)cc3)c(C#N)c2)ccc1/C=C/c1ccc(N(c2ccccc2)c2ccccc2)cc1` returned a photoluminescence quantum yield (in ClCCl) of 0.32.

`Brc1ccc(-c2pc3ccccc3s2)cc1` (stereo not drawn) showed a photoluminescence quantum yield (in CC#N) of 0.032.

As to `COc1cc2sc3nc(-c4ccccc4OC)sc3c2cc1OC`, the photoluminescence quantum yield (in CS(C)=O) was found to be 0.76.

`CC/[NH+]=c1\cc2oc3cc(NCCC(=O)O)c4ccccc4c3nc-2cc1C` came in with a photoluminescence quantum yield (in CCO) of 0.44 and a photoluminescence quantum yield (in O) of 0.28.

`CC[n+]1nc2ccc(N(C)C)cc2c2cc(C)ccc21`: for the setting “in O”, the photoluminescence quantum yield came to 0.003.

`O=c1oc2ccccc2c2c1c(=O)oc1ccc3ccc(O)cc3c12` yielded a photoluminescence quantum yield (in CS(C)=O) of 0.02 and a photoluminescence quantum yield (in ClCCl) of 0.22.

With `O=Cc1ccc(-c2ccc(O)c(-c3nc4ccccc4s3)c2)o1`, the photoluminescence quantum yield was 0.0246 (in CCO), 0.0632 (in ClCCl) and 0.02 (in O).

As for `CCCCCCOc1cc(N(CC)CC)ccc1/C=C/C(=C(C#N)C#N)c1ccc2c(c1)c1ccccc1n2CC`, the photoluminescence quantum yield (in ClCCl) was found to be 0.121.

Turning to `Clc1cc(Cl)c([C](c2c(Cl)cc(Cl)cc2Cl)c2c(Cl)cc(Cl)cc2Cl)c(Cl)c1`, the photoluminescence quantum yield (in C1CCCCC1) turned out to be 0.008.

Consider `c1cc2c3c(cccc3c1)C(N1CCOCCNCCOCCOCC1)=N2`, for which the photoluminescence quantum yield (in CC#N) came out at 0.0046.

Take `COc1c2ccccc2c(OC)c2c1c1c(F)cccc1n2C`: the photoluminescence quantum yield reads like this: (in C1CCCCC1) 0.38; (in CC#N) 0.26; (in CO) 0.33; (in ClCCl) 0.41.

`C[Si]1(C)O[Si](C)(C)c2cc3nc4ccccc4c(-c4ccccc4)c3cc2[Si](C)(C)O1` gave a photoluminescence quantum yield (in ClCCl) of 0.42.

`CC1=[N+]2C(=c3c4c5ccccc5cc5cccc(c6cc(C)n(c36)[B-]2(F)F)c54)C=C1`: the photoluminescence quantum yield reads like this: (in C1CCOC1) 0.48; (in CCCCCC) 0.48; (in CO) 0.1; (in CS(C)=O) 0.03; (in ClC(Cl)Cl) 0.4; (in ClCCl) 0.45.

`N#Cc1cc(-n2c3ccccc3c3ccccc32)c(-n2c3ccccc3c3ccccc32)cc1C#N`: the photoluminescence quantum yield is, setting by setting: (in C1CCOC1) 0.125; (in Cc1ccccc1) 0.465; under setting [1], 0.6.

Take `COc1ccc(OC)c(C(C)=O)c1`: the photoluminescence quantum yield (in CO) was determined as 0.1.

Where the note is “in C1CCOC1”, `CCCCCCOc1cc(C=C2c3ccccc3-c3ccccc32)c(OCCCCCC)cc1C=C1c2ccccc2C=Cc2ccccc21` yielded a photoluminescence quantum yield of 0.0013.

As to `COc1cc(N(c2ccccc2)c2ccc(C=C(C#N)C#N)c(OC)c2)ccc1C=C(C#N)C#N`, the photoluminescence quantum yield is, setting by setting: (in C1COCCO1) 0.035; (in CC#N) 0.008; (in CC(C)=O) 0.017; (in CCOC(C)=O) 0.085; (in CN(C)C=O) 0.073; (in CO) 0.039. For the same compound, the photoluminescence quantum yield is, setting by setting: (in Cc1ccccc1) 0.032; (in ClC(Cl)Cl) 0.076; (in ClCCl) 0.072.

Where the note is “in c1cc(-c2cccc(-n3c4ccccc4c4ccccc43)c2)cc(-n2c3ccccc3c3ccccc32)c1”, `CC(C)c1cc(C(C)C)c(B2c3cc(N4c5ccccc5C(C)(C)c5ccccc54)ccc3N(c3ccccc3)c3ccc(N4c5ccccc5C(C)(C)c5ccccc54)cc32)c(C(C)C)c1` displayed a photoluminescence quantum yield of 0.95.

Regarding `Cc1cc(-c2nc(-c3ccccc3)nc(-c3ccccc3)n2)ccc1-n1c2ccccc2c2cc3c(cc21)C1c2ccccc2C3c2ccccc21`, the photoluminescence quantum yield runs as follows: (in Cc1ccccc1) 0.6; (in O=P(c1ccccc1)(c1ccccc1)c1ccccc1Oc1ccccc1P(=O)(c1ccccc1)c1ccccc1) 0.32.

Regarding `CCCCN(CCCC)c1ccc(C#Cc2cc(C#Cc3ccc(N(CCCC)CCCC)cc3)c(C#Cc3ccc(C#N)cc3)cc2C#Cc2ccc(C#N)cc2)cc1`, the photoluminescence quantum yield (in ClCCl) is 0.35.

In turn, `CCCCN(CCCC)c1ccc(C#Cc2cc(C#Cc3ccc(N(CCCC)CCCC)cc3)c(C#Cc3ccc(C(F)(F)F)cc3)cc2C#Cc2ccc(C(F)(F)F)cc2)cc1` had a photoluminescence quantum yield (in ClCCl) of 0.38.

In the case of `C#CCN1C(=O)/C(=C/c2cc(OC(C)C)ccc2OC(C)C)N=C1C`, the photoluminescence quantum yield reads like this: (in C1COCCO1) 0.108; (in CC#N) 0.134; (in CC(C)=O) 0.12; (in CCCCCC) 0.089; (in CCCCO) 0.029; (in CCCO) 0.08. The photoluminescence quantum yield reads like this: (in CCO) 0.025; (in CCOC(C)=O) 0.101; (in CN(C)C=O) 0.171; (in CO) 0.019; (in CS(C)=O) 0.182.

Compound `c1cc2oc3cccc4oc5cccc6oc(c1)c2[c+](c34)c65` yielded a photoluminescence quantum yield (in CC#N) of 0.11.

Take `C#Cc1ccc(/C2=c3\cc/c([nH]3)=C(\c3ccc(C#C)cc3)C3=N/C(=C(/c4cc(C(C)(C)C)cc(C(C)(C)C)c4)c4cc(c[nH]4)/C(c4cc(C(C)(C)C)cc(C(C)(C)C)c4)=C4/C=CC2=N4)C=C3)cc1`: the photoluminescence quantum yield (in CC(=O)N(C)C) worked out at 0.0578.

Compound `CCN(CC)c1ccc2c(c1)oc(=O)c1cc3c(-c4ccccc4)nn(-c4ccccc4)c3nc12` had a photoluminescence quantum yield (in C1CCCCC1) of 0.31; a photoluminescence quantum yield (in CCOC(C)=O) of 0.195; a photoluminescence quantum yield (in CN(C)C=O) of 0.013; a photoluminescence quantum yield (in CO) of 0.002; a photoluminescence quantum yield (in ClCCl) of 0.24.

In turn, `CC(C)[Si](C#Cc1cc2c3c(c1)c(=C1c4ccccc4Sc4ccccc41)c1cc(C#C[Si](C(C)C)(C(C)C)C(C)C)cc4c1N3c1c(cc(C#C[Si](C(C)C)(C(C)C)C(C)C)cc1c4=C1c3ccccc3Sc3ccccc31)c2=C1c2ccccc2Sc2ccccc21)(C(C)C)C(C)C` registered a photoluminescence quantum yield (in ClCCl) of 0.46.

`CCCCCCCCCCCCOc1cc2cc(N(C)C)ccc2cc1C=O`: the photoluminescence quantum yield (in ClCCl) amounted to 0.93.

In turn, `CN(C)c1ccc(C2=Cc3ccc4ccccc4[n+]3[B-](F)(F)O2)cc1` showed a photoluminescence quantum yield (in C1CCOC1) of 0.517; a photoluminescence quantum yield (in C1COCCO1) of 0.735; a photoluminescence quantum yield (in CC1CCCCC1) of 0.862; a photoluminescence quantum yield (in CC#N) of 0.296; a photoluminescence quantum yield (in CCOC(C)=O) of 0.614; a photoluminescence quantum yield (in CCOCC) of 0.747. Further, the photoluminescence quantum yield is 0.187 (in CN(C)C=O), 0.308 (in CO), 0.374 (in COC(C)=O) and 0.86 (in ClC(Cl)Cl).

Turning to `CC1(C)c2ccccc2N(c2ccc(C(=O)c3cc(C(=O)c4ccc(N5c6ccccc6C(C)(C)c6ccccc65)cc4)cc(C(=O)c4ccc(N5c6ccccc6C(C)(C)c6ccccc65)cc4)c3)cc2)c2ccccc21`, the photoluminescence quantum yield by setting is: (in Cc1ccccc1) 0.189; under setting [1], 0.856.
